Results on 19 compounds are retold here after PubChem BioAssay AID328 (DTP/NCI, 2004).

Each structure is given as a SMILES string. Values joined by “and” are separate entries in the source; they are usually repeats but may differ in a detail not shown here. Identical values can stand only once. Inconclusive results and toxic doses are left out.

The subject of this experiment is BDF1 mice, P388 leukemia ip, median survival T/C. As to the kind of experiment: NCI In Vivo Anticancer Drug Screen. Data for tumor model P388 Leukemia (intraperitoneal) in B6D2F1 (BDF1) mice. The conditions noted are these: endpoint: median survival time, higher = longer survival. The essentials:
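In tumour-bearing mice, survival after compound treatment is set against the vehicle group and given as a quotient.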

The mark [1] stands for this setting: dose: 12.5 mg/kg/injection, schedule: Q01DX009 (ip), vehicle: water.
Setting [2] is: dose: 12.5 mg/kg/injection, schedule: Q04DX003 (ip), vehicle: water.
The mark [3] stands for this setting: dose: 25.0 mg/kg/injection, schedule: Q04DX003 (ip), vehicle: water.
The mark [4] stands for this setting: dose: 50.0 mg/kg/injection, schedule: Q04DX003 (ip), vehicle: water.
Where [5] appears, read: dose: 100.0 mg/kg/injection, schedule: Q04DX003 (ip), vehicle: water.
[6] abbreviates: dose: 50.0 mg/kg/injection, schedule: Q01DX001 (ip), vehicle: Klucel (hydroxypropylcellulose) (HPC).
[7] abbreviates: dose: 100.0 mg/kg/injection, schedule: Q01DX001 (ip), vehicle: Klucel (hydroxypropylcellulose) (HPC).
Where [8] appears, read: dose: 200.0 mg/kg/injection, schedule: Q01DX001 (ip), vehicle: Klucel (hydroxypropylcellulose) (HPC).
Where [9] appears, read: dose: 50.0 mg/kg/injection, schedule: Q01DX009 (ip), vehicle: saline with Tween-80.
The mark [10] stands for this setting: dose: 100.0 mg/kg/injection, schedule: Q01DX009 (ip), vehicle: saline with Tween-80.
Setting [11] is: dose: 200.0 mg/kg/injection, schedule: Q01DX009 (ip), vehicle: saline with Tween-80.
Where [12] appears, read: dose: 1.5 mg/kg/injection, schedule: Q01DX010 (ip), vehicle: saline.
Where [13] appears, read: dose: 100.0 mg/kg/injection, schedule: Q04DX003 (ip), vehicle: saline with Tween-80.
Setting [14] is: dose: 200.0 mg/kg/injection, schedule: Q04DX003 (ip), vehicle: saline with Tween-80.
The mark [15] stands for this setting: dose: 400.0 mg/kg/injection, schedule: Q04DX003 (ip), vehicle: saline with Tween-80.
The mark [16] stands for this setting: dose: 12.5 mg/kg/injection, schedule: Q01DX009 (ip), vehicle: saline with Tween-80.
[17] abbreviates: dose: 25.0 mg/kg/injection, schedule: Q01DX009 (ip), vehicle: saline with Tween-80.
Where [18] appears, read: dose: 100.0 mg/kg/injection, schedule: Q04DX003 (ip), vehicle: saline.

Take `CCN(CC)CCOC(=O)c1ccc([N+](=O)[O-])c2ccccc12`: the T/C (dose: 50.0 mg/kg/injection, schedule: Q01DX005 (ip), vehicle: saline with Tween-80) is 98 % of control; the T/C (dose: 100.0 mg/kg/injection, schedule: Q01DX005 (ip), vehicle: saline with Tween-80) was 88 % of control; the T/C (dose: 200.0 mg/kg/injection, schedule: Q01DX005 (ip), vehicle: saline with Tween-80) was 88 % of control.
In the case of `CN(C)CCNC1=CC(=O)c2ccccc2C1=O`, the T/C by setting is: under setting [1], 91 % of control; under setting [2], 107 % of control; (dose: 25.0 mg/kg/injection, schedule: Q01DX009 (ip), vehicle: water) 102 % of control; under setting [3], 100 % of control; (dose: 50.0 mg/kg/injection, schedule: Q01DX009 (ip), vehicle: water) 100 % of control; under setting [4], 100 % of control. In addition, the T/C is, setting by setting: (dose: 100.0 mg/kg/injection, schedule: Q01DX009 (ip), vehicle: water) 98 % of control; under setting [5], 98 % of control; (dose: 200.0 mg/kg/injection, schedule: Q01DX009 (ip), vehicle: water) 96 % of control and 105 % of control.
With `O=C1C(O)=Cc2cn(CCO)c(=O)c3ccc(-c4ccccc4)c1c23`, the T/C is 100 % of control under setting [6], 100 % of control under setting [7] and 104 % of control under setting [8].
In the case of `O=C(CN1C(=O)c2ccccc2C1=O)c1ccc(C(F)(F)F)cc1`, the T/C runs as follows: under setting [6], 96 % of control; under setting [7], 105 % of control; under setting [8], 88 % of control.
For the compound `O=C(Cn1ccnc1[N+](=O)[O-])NCc1ccccc1`, the T/C under setting [9] was 99 % of control, the T/C under setting [10] is 94 % of control and the T/C under setting [11] was 100 % of control.
Turning to `COc1ccc(C2C=C(C)Oc3c2c(=O)oc2ccccc32)cc1OC` (stereo not drawn), the T/C is, setting by setting: (dose: 6.25 mg/kg/injection, schedule: Q04DX003 (ip), vehicle: water) 98 % of control; under setting [1], 91 % of control; under setting [2], 104 % of control; under setting [3], 100 % of control; under setting [4], 100 % of control; under setting [5], 88 % of control and 96 % of control. The T/C reads like this: (dose: 200.0 mg/kg/injection, schedule: Q04DX003 (ip), vehicle: water) 94 % of control; (dose: 400.0 mg/kg/injection, schedule: Q04DX003 (ip), vehicle: water) 90 % of control.
For the compound `O=c1cccc2n1CC1CNC[C@H]2C1`, the T/C under setting [12] is 104 % of control; the T/C (dose: 3.0 mg/kg/injection, schedule: Q01DX010 (ip), vehicle: saline) was 109 % of control; the T/C (dose: 6.0 mg/kg/injection, schedule: Q01DX010 (ip), vehicle: saline) is 109 % of control.
In the case of `COC(=O)C12N=NN(c3ccccc3)C1(C(=O)OC)C1CCC2C1` (stereo not drawn), the T/C reads like this: under setting [13], 100 % of control; under setting [14], 100 % of control; under setting [15], 91 % of control.
For the compound `COc1cc(C=Nc2ccc(C(=O)O)cc2)ccc1N(CCCl)CCCl`, the T/C was 115 % of control (dose: 1.3 mg/kg/injection, schedule: Q04DX003 (ip), vehicle: saline with Tween-80); 111 % of control (dose: 2.0 mg/kg/injection, schedule: Q04DX003 (ip), vehicle: saline with Tween-80); 162 % of control (dose: 3.0 mg/kg/injection, schedule: Q04DX003 (ip), vehicle: saline with Tween-80); 150 % of control and 158 % of control (dose: 7.0 mg/kg/injection, schedule: Q04DX003 (ip), vehicle: saline with Tween-80); 170 % of control (dose: 11.0 mg/kg/injection, schedule: Q04DX003 (ip), vehicle: saline with Tween-80); 195 % of control under setting [16]. Further, the T/C runs as follows: (dose: 16.0 mg/kg/injection, schedule: Q04DX003 (ip), vehicle: saline with Tween-80) 187 % of control; (dose: 16.5 mg/kg/injection, schedule: Q04DX003 (ip), vehicle: saline with Tween-80) 169 % of control; (dose: 25.0 mg/kg/injection, schedule: Q04DX003 (ip), vehicle: saline with Tween-80) 196 % of control; (dose: 37.5 mg/kg/injection, schedule: Q04DX003 (ip), vehicle: saline with Tween-80) 107 % of control.
With `O=C1/C(=C/c2ccccc2)Cc2ccccc21`, the T/C reads like this: under setting [17], 96 % of control; under setting [9], 96 % of control; under setting [10], 94 % of control; under setting [13], 107 % of control; under setting [11], 96 % of control; under setting [14], 100 % of control. Moreover, the T/C under setting [15] was 99 % of control.
On to `S=C1SCN(CCc2ccccc2)CN1CCc1ccccc1`, for which the T/C is 111 % of control (dose: 6.25 mg/kg/injection, schedule: Q01DX009 (ip), vehicle: saline with Tween-80); 102 % of control under setting [16]; 104 % of control under setting [17]; 100 % of control under setting [9].
Take `COc1ccc(Br)cc1/C=C/[N+](=O)[O-]`: under setting [9], the T/C is 87 % of control.
Consider `CCCCCCCCCCCCCCCCS(=O)(=O)N/N=C/C(=O)O`, for which the T/C (dose: 12.5 mg/kg/injection, schedule: Q01DX009 (ip), vehicle: other) is 116 % of control.
Turning to `O=c1[nH]cc(N(CCCl)CCCl)c(=O)[nH]1`, the T/C reads like this: (dose: 0.38 mg/kg/injection, schedule: Q01DX010 (ip), vehicle: saline) 218 % of control; (dose: 0.75 mg/kg/injection, schedule: Q01DX010 (ip), vehicle: saline) 300 % of control; under setting [12], 204 % of control.
As to `CC1(O)Cn2c(nc3nccnc32)S1` (stereo not drawn), the T/C was 107 % of control (dose: 25.0 mg/kg/injection, schedule: Q01DX009 (ip), vehicle: saline); 115 % of control (dose: 50.0 mg/kg/injection, schedule: Q01DX009 (ip), vehicle: saline); 108 % of control (dose: 50.0 mg/kg/injection, schedule: Q04DX003 (ip), vehicle: saline); 100 % of control under setting [18].
As to `OC(Cc1cnc2ccccc2c1)(c1ccccc1)c1ccccc1`, the T/C runs as follows: (dose: 25.0 mg/kg/injection, schedule: Q04DX002 (ip), vehicle: saline with Tween-80) 98 % of control and 103 % of control; (dose: 50.0 mg/kg/injection, schedule: Q04DX002 (ip), vehicle: saline with Tween-80) 99 % of control and 117 % of control; (dose: 100.0 mg/kg/injection, schedule: Q04DX002 (ip), vehicle: saline with Tween-80) 98 % of control and 103 % of control; (dose: 200.0 mg/kg/injection, schedule: Q04DX002 (ip), vehicle: saline with Tween-80) 94 % of control and 99 % of control and 100 % of control; (dose: 400.0 mg/kg/injection, schedule: Q04DX002 (ip), vehicle: saline with Tween-80) 98 % of control.
`Nc1cc2ccncc2c2sc3ccccc3c12`: the T/C reads like this: under setting [18], 104 % of control; (dose: 200.0 mg/kg/injection, schedule: Q04DX003 (ip), vehicle: saline) 97 % of control; (dose: 400.0 mg/kg/injection, schedule: Q04DX003 (ip), vehicle: saline) 106 % of control.
Take `CN(C)N=Nc1ccc(CCCC(=O)NN)cc1`: the T/C reads like this: (dose: 1.56 mg/kg/injection, schedule: Q01DX009 (ip), vehicle: saline with Tween-80) 109 % of control; (dose: 2.0 mg/kg/injection, schedule: Q01DX009 (ip), vehicle: saline with Tween-80) 120 % of control; under setting [17], 92 % of control; (dose: 50.0 mg/kg/injection, schedule: Q04DX003 (ip), vehicle: saline sonified) 100 % of control; under setting [10], 100 % of control; (dose: 100.0 mg/kg/injection, schedule: Q04DX003 (ip), vehicle: saline sonified) 115 % of control. In addition, the T/C (dose: 200.0 mg/kg/injection, schedule: Q04DX003 (ip), vehicle: saline sonified) is 110 % of control.
Take `O=[n+]1c2c(n([O-])c3ccccc31)-c1cccc3cccc-2c13`: the T/C runs as follows: (dose: 25.0 mg/kg/injection, schedule: Q01DX010 (ip), vehicle: saline) 95 % of control; (dose: 50.0 mg/kg/injection, schedule: Q01DX010 (ip), vehicle: saline) 91 % of control; (dose: 100.0 mg/kg/injection, schedule: Q01DX010 (ip), vehicle: saline) 91 % of control.
